According to ChEMBL document CHEMBL4033720, “Discovery of novel cyclic peptide inhibitors of dengue virus NS2B-NS3 protease with antiviral activity” (Bioorg Med Chem Lett, 2017):

Assays:
[1] = Toxicity in BHK21 cells assessed a reduction in cell viability after 4 days by resazurin dye based method; parameters: species or system Mesocricetus auratus, BHK-21; settings: hamster
[2] = Stability assessed as dengue virus 2 NS2B-NS3 protease-mediated compound degradation at 200 uM in presence of […] incubated for 0 to 22.5 hrs by LC-MS method; assay type: ADME; settings: dengue virus type 2, 200 µM
[3] = Stability assessed as dengue virus 2 NS2B-NS3 protease-mediated compound degradation at 200 uM in presence of 100 nM enzyme incubated for 24 hrs by LC-MS method; assay type: ADME; settings: dengue virus type 2, 24 h
dengue virus type 2 = assay: Antiviral activity against dengue virus 2 infected in BHK21 cells assessed as inhibition of virus-induced cytopathic effect after 4 days by resazurin dye based method; assay type: functional, cell-based; settings: Dengue virus, BHK-21, 96 h; read-out: EC50
[4] = Inhibition of dengue virus 2 NS2B-NS3 protease pre-incubated for 10 mins before Boc-Gly-Arg-Arg-peptidyl-4-methylcoumaryl-7-amide substrate addition and measured after 2 hrs by fluorescence based assay; parameters: species or system dengue virus type 2
[5] = Stability assessed as dengue virus 2 NS2B-NS3 protease-mediated compound degradation at 200 uM in presence of […] incubated for 22.5 hrs by LC-MS method; assay type: ADME; settings: dengue virus type 2, 22.5 h

SMILES | CC50 at 96 h [1] [µM] | Stability [2] | Stability [3] | EC50 (dengue virus type 2) [µM] | IC50 [4] [µM] | Stability [5]
C[C@@H]1NC(=O)[C@H](CCCCN)NC(=O)[C@H](CCCNC(=N)N)NC(=O)[C@H](CCCNC(=N)N)NC(=O)[C@@H](CCCNC(=N)N)NC(=O)[C@@H](Cc2ccccc2)NC(=O)[C@H](Cc2cccc3ccccc23)NC(=O)[C@H](CCc2ccccc2)NC1=O | 134 | Unstable | Stable | 11.8 | 1.7 | 
C[C@@H]1NC[C@H](CCCCN)NC(=O)[C@H](CCCNC(=N)N)NC(=O)[C@H](CCCNC(=N)N)NC(=O)[C@@H](CCCNC(=N)N)NC(=O)[C@@H](Cc2ccccc2)NC(=O)[C@H](Cc2cccc3ccccc23)NC(=O)[C@H](CCc2ccccc2)NC1=O | 129 |  |  | 11.4 | 2.1 | Stable
